The values below come from ChEMBL document CHEMBL1131802, “Design and synthesis of beta-carboxamido phosphonates as potent inhibitors of imidazole glycerol phosphate dehydratase” (Bioorg Med Chem Lett, 1999).

Assay [1] concerns the target Imidazoleglycerol-phosphate dehydratase (Cryptococcus neoformans var. neoformans B-3501A) (UniProt P0CO23). As to the kind of experiment: Kinetic constant for the inhibition of imidazole glycerol phosphate dehydratase (IGPD).
The target in assay [2] is T1, Imidazoleglycerol-phosphate dehydratase (Cryptococcus neoformans var. neoformans B-3501A, UniProt P0CO23). As to the kind of experiment: Inhibitory concentration against imidazole glycerol phosphate dehydratase (IGPD) from Cryptococcus neoformans.
Assay [3] deals with T1, Imidazoleglycerol-phosphate dehydratase. As to the kind of experiment: Binding affinity imidazole glycerol phosphate dehydratase (IGPD) obtained from Cryptococcus neoformans.

T1 sequence (P0CO23 whole entry, looked up): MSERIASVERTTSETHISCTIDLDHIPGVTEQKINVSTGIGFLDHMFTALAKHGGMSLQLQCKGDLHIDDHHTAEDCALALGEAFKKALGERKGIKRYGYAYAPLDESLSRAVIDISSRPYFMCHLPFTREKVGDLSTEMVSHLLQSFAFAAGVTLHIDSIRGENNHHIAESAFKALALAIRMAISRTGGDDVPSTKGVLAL
Imidazoleglycerol-phosphate dehydratase (Cryptococcus neoformans var. neoformans B-3501A), sequence (P0CO23 whole entry, looked up): as above

By IC50 is commonly meant the concentration that inhibits the measured activity by half. Read a high IC50 as weaker potency in that assay. In general, Ki refers to a measure of affinity in units of concentration, obtained from inhibition or displacement. High values mean a looser hold on the target, low ones a stronger hold on the target. Turning to `O=C(CSc1ccccc1)NC(Cn1cncn1)CP(=O)(O)O` (centres undefined), in assay [1], the Kis amounted to 1.26 µM. Further, the IC50 in assay [2] came to 0.92 µM. Moreover, in assay [3], the inhibition constant Ki was 0.25 µM.

`O=C(CCC(=O)c1ccccc1)NC(Cn1cncn1)CP(=O)(O)O` (centres undefined) registered an IC50 in assay [2] of 20 µM.

`O=C(NC(Cn1cncn1)CP(=O)(O)O)c1ccccc1O` (centres undefined) had a Kis in assay [1] of 22 µM. This compound also showed an IC50 in assay [2] of 16 µM. The inhibition constant Ki in assay [3] is 3.5 µM.

In turn, `CCC(=O)NC(Cn1cncn1)CP(=O)(O)O` (centres undefined) gave a Kis in assay [1] of 9 µM. Besides, the IC50 in assay [2] worked out at 6.1 µM. Besides, affinity in assay [3] was put at a Ki of 1.2 µM.

As for `CC(=O)NC(Cn1cncn1)CP(=O)(O)O` (centres undefined), in assay [1], the Kis is 6.1 µM. The half-inhibitory concentration (IC50) in assay [2] worked out at 3.9 µM. In assay [3], this compound came in with a Ki of 0.8 µM.

`O=C(CCc1cccc([N+](=O)[O-])c1)NC(Cn1cncn1)CP(=O)(O)O` (centres undefined) gave an IC50 in assay [2] of 1.5 µM.

`CC1(C)CC(=O)OC1CC(=O)NC(Cn1cncn1)CP(=O)(O)O` (centres undefined) yielded a half-maximal inhibitory concentration (IC50) in assay [2] of 2.9 µM.

`CNC(=O)C(=O)NC(Cn1cncn1)CP(=O)(O)O` (centres undefined) registered an IC50 in assay [2] of over 50 µM.

Turning to `CCCCc1ccc(C(=O)NC(Cn2cncn2)CP(=O)(O)O)cc1` (centres undefined), in assay [1], the Kis was determined as 5.9 µM. Moreover, in assay [2], the IC50 is 4.1 µM. Moreover, the affinity in assay [3] corresponds to a Ki of 1.3 µM.

For `O=C(COc1ccccc1)NC(Cn1cncn1)CP(=O)(O)O` (centres undefined), the Kis in assay [1] was 0.27 µM. Besides, the IC50 in assay [2] stood at 0.38 µM. This compound displayed an inhibition constant Ki in assay [3] of 0.08 µM.

Take `CC(C)(C)CC(=O)NC(Cn1cncn1)CP(=O)(O)O` (centres undefined): the Kis in assay [1] was 5 µM. In addition, half-maximal inhibition in assay [2] (IC50) required 4.8 µM. In assay [3], this compound displayed a Ki of 1.13 µM.

`CCCCCC(=O)NC(Cn1cncn1)CP(=O)(O)O` (centres undefined): the Kis in assay [1] was 1.22 µM. It took 0.84 µM to reach half-maximal inhibition in assay [2] (IC50). In addition, the affinity in assay [3] corresponds to a Ki of 0.34 µM.

`O=C(CCC1CCCC1)NC(Cn1cncn1)CP(=O)(O)O` (centres undefined) had a Kis in assay [1] of 3.7 µM. In addition, 3.1 µM corresponded to half-maximal inhibition in assay [2] (IC50). In assay [3], the affinity corresponds to a Ki of 0.88 µM.

In the case of `NC(Cn1cncn1)CP(=O)(O)O` (centres undefined), in assay [3], affinity was put at a Ki of 0.015 µM.

In turn, `O=P(O)(O)CC(O)Cn1cncn1` (centres undefined) displayed a Ki in assay [3] of 0.0006 µM.

In turn, `O=C(CCc1ccccc1)NC(Cn1cncn1)CP(=O)(O)O` (centres undefined) gave a Kis in assay [1] of 1.14 µM. The same compound gave an IC50 in assay [2] of 0.96 µM. In assay [3], this compound yielded a Ki of 0.27 µM.

`O=C(NC(Cn1cncn1)CP(=O)(O)O)C1CC1` (centres undefined) came in with a Kis in assay [1] of 19 µM. In addition, half-maximal inhibition in assay [2] (IC50) was put at 17 µM. The compound further came in with an inhibition constant (Ki) in assay [3] of 4 µM.

Regarding `O=C(COc1ccc(Cl)cc1)NC(Cn1cncn1)CP(=O)(O)O` (centres undefined), the Kis in assay [1] worked out at 2.12 µM. In assay [2], this compound yielded an IC50 of 2 µM. This compound also showed a Ki in assay [3] of 0.55 µM.

In assay [2], `CC1(CCC(=O)NC(Cn2cncn2)CP(=O)(O)O)SCCS1` (centres undefined) gave an IC50 of 0.8 µM.

Compound `O=C(CO)NC(Cn1cncn1)CP(=O)(O)O` (centres undefined) returned a Kis in assay [1] of 1.23 µM. 0.91 µM corresponded to half-maximal inhibition in assay [2] (IC50). In assay [3], this compound displayed an inhibition constant (Ki) of 0.23 µM.

The compound `C/C=C/C(=O)NC(Cn1cncn1)CP(=O)(O)O` (centres undefined) yielded a Kis in assay [1] of 5.6 µM. The same compound came in with a concentration for half-maximal inhibition (IC50) in assay [2] of 4 µM. In assay [3], the affinity corresponds to a Ki of 1.45 µM.

In turn, `COC(=O)CCCC(=O)NC(Cn1cncn1)CP(=O)(O)O` (centres undefined) yielded a Kis in assay [1] of 3.95 µM. In assay [2], this compound had a half-maximal inhibitory concentration (IC50) of 2.8 µM. This compound gave an inhibition constant (Ki) in assay [3] of 0.7 µM.

Take `O=C(NC(Cn1cncn1)CP(=O)(O)O)c1ccco1` (centres undefined): the Kis in assay [1] came to 33 µM. This compound came in with a half-inhibitory concentration (IC50) in assay [2] of over 50 µM. In assay [3], the inhibition constant Ki turned out to be 7.5 µM.

`O=C(NC(Cn1cncn1)CP(=O)(O)O)c1ccccc1` (centres undefined): the Kis in assay [1] came to 100 µM. In assay [2], this compound came in with a concentration for half-maximal inhibition (IC50) of over 50 µM. The inhibition constant Ki in assay [3] worked out at 10 µM.

Compound `O=C(Cc1ccccc1)NC(Cn1cncn1)CP(=O)(O)O` (centres undefined) registered a Kis in assay [1] of 3.9 µM. In assay [2], the IC50 stood at 2.7 µM. The affinity in assay [3] corresponds to a Ki of 0.34 µM.

`O=C(NC(Cn1cncn1)CP(=O)(O)O)c1c(F)cccc1F` (centres undefined) registered a Kis in assay [1] of 5.8 µM. In assay [2], this compound gave a 50% inhibitory concentration (IC50) of 4.6 µM. The compound further gave a Ki in assay [3] of 1.15 µM.

`O=C(/C=C/c1ccccc1)NC(Cn1cncn1)CP(=O)(O)O` (centres undefined) gave a Kis in assay [1] of 25 µM. The compound further showed an IC50 in assay [2] of 21 µM. The affinity in assay [3] corresponds to a Ki of 4.5 µM.

In turn, `CC(C)=CC(=O)NC(Cn1cncn1)CP(=O)(O)O` (centres undefined) had a Kis in assay [1] of 5.5 µM. The same compound showed an IC50 in assay [2] of 4.5 µM. The same compound displayed an inhibition constant Ki in assay [3] of 1.3 µM.

In assay [1], `O=C(Cc1cccs1)NC(Cn1cncn1)CP(=O)(O)O` (centres undefined) showed a Kis of 2.4 µM. Moreover, the IC50 in assay [2] worked out at 3.5 µM. This compound also came in with an inhibition constant (Ki) in assay [3] of 0.56 µM.

In assay [1], `CC(Oc1ccccc1)C(=O)NC(Cn1cncn1)CP(=O)(O)O` (centres undefined) came in with a Kis of 1.22 µM. The same compound showed a 50% inhibitory concentration (IC50) in assay [2] of 1.5 µM. The inhibition constant (Ki) in assay [3] came to 0.23 µM.

Consider `COCC(=O)NC(Cn1cncn1)CP(=O)(O)O` (centres undefined), for which the Kis in assay [1] worked out at 17 µM. For the same compound, the midpoint of inhibition in assay [2], the IC50, lay at 10 µM. The compound further displayed a Ki in assay [3] of 2.2 µM.
